biological target: T1, human M4 muscarinic acetylcholine receptor (Homo sapiens, UniProt P08173); assay: human FLIPR-based M4 PAM assay (Ca2+ mobilization, CHO-K1 cells with human M4 receptor and Gαqi5); assay type: cell-based; settings: acetylcholine at 20% of maximum response, read-out: M4 PAM IP
T1 construct: expressed in transfected cells; host or cells: CHO-K1
T1 sequence (P08173 1-479): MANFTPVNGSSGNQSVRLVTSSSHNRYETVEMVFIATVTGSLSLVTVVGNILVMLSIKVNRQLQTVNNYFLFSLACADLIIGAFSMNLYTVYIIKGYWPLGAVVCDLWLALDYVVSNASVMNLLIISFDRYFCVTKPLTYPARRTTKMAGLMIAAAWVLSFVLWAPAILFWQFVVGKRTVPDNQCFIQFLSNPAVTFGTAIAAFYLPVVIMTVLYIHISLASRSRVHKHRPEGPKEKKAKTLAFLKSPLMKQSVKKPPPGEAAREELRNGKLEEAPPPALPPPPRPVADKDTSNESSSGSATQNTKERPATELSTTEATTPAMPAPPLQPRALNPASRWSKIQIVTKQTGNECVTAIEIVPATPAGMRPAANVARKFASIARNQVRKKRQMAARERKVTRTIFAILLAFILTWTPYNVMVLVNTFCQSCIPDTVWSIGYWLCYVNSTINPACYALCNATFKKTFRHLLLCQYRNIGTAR
In short: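 CHO-K1 cells stably expressing human M4 and chimeric Gαqi5 were dye-loaded ~1 h at 37 °C and read for Ca2+ fluorescence. Compound followed by acetylcholine at an EC20 (sometimes an EC70 third addition); inflection point from a 4-parameter logistic fit.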

| EC50 [nM] | Structure (SMILES) |
| --- | --- |
| 41 | COc1ccc(OC2CCN(c3nc4c(cc3C)C(=O)NC4)CC2)cc1 [Example 47, 2-(4-(4-methoxyphenoxy)piperidin-1-yl)-3-methyl-6,7-dihydro-5H-pyrrolo[3,4-b]pyridin-5-one] |
| 287 | Cc1cc2c(nc1N1CCC(Oc3cccc(S(C)(=O)=O)c3)CC1)CNC2=O [Example 47A, 3-methyl-2-(4-(3-(methylsulfonyl)phenoxy)piperidin-1-yl)-6,7-dihydro-5H-pyrrolo[3,4-b]pyridin-5-one] |
| 61 | Cc1cc2c(nc1N1CCC(Oc3cnc4c(c3)COC4)CC1)CNC2=O [Example 48, 2-(4-((5,7-dihydrofuro[3,4-b]pyridin-3-yl)oxy)piperidin-1-yl)-3-methyl-6,7-dihydro-5H-pyrrolo[3,4-b]pyridin-5-one] |
| 67 | Cc1cc2c(nc1N1CC[C@@H](Oc3cnc4c(c3)COC4)[C@H](F)C1)CNC2=O [Example 48A, 2-((3R,4R)-4-((5,7-dihydrofuro[3,4-b]pyridin-3-yl)oxy)-3-fluoropiperidin-1-yl)-3-methyl-6,7-dihydro-5H-pyrrolo[3,4-b]pyridin-5-one] |
| 94 | Cc1cc2c(nc1N1CCC(Oc3cnc4c(c3)COC4)CC1)CN(C)C2=O [Example 49, 2-(4-((5,7-dihydrofuro[3,4-b]pyridin-3-yl)oxy)piperidin-1-yl)-3,6-dimethyl-6,7-dihydro-5H-pyrrolo[3,4-b]pyridin-5-one] |
| 657 | Cc1cc2c(nc1N1CCC(Oc3cncc(C#N)c3)CC1)CNC2=O [Example 50, 5-((1-(3-methyl-5-oxo-6,7-dihydro-5H-pyrrolo[3,4-b]pyridin-2-yl)piperidin-4-yl)oxy)nicotinonitrile] |
| 51 | COc1cccc(OC2CCN(c3nc4c(cc3C)C(=O)NC4)CC2)c1 [Example 51, 2-(4-(3-methoxyphenoxy)piperidin-1-yl)-3-methyl-6,7-dihydro-5H-pyrrolo[3,4-b]pyridin-5-one] |
| 238 | Cc1cc2c(nc1N1CCC(Oc3cnc4c(c3)COCC4)CC1)CNC2=O [Example 52, 2-(4-((7,8-dihydro-5H-pyrano[4,3-b]pyridin-3-yl)oxy)piperidin-1-yl)-3-methyl-6,7-dihydro-5H-pyrrolo[3,4-b]pyridin-5-one] |
| 449 | Cc1cc2c(nc1N1CCC(Oc3cnc4c(c3)COCC4)CC1)CN(C)C2=O [Example 53, 2-(4-((7,8-dihydro-5H-pyrano[4,3-b]pyridin-3-yl)oxy)piperidin-1-yl)-3,6-dimethyl-6,7-dihydro-5H-pyrrolo[3,4-b]pyridin-5-one] |
| 8760 | CCOCCOC1CCN(c2nc3c(cc2C)C(=O)NC3)CC1 [Example 54, 2-(4-(2-ethoxyethoxy)piper-idin-1-yl)-3-methyl-6,7-dihydro-5H-pyrrolo[3,4-b]pyridin-5-one] |
| 1120 | CCOC1CCN(c2nc3c(cc2C)C(=O)NC3)CC1 [Example 55, 2-(4-ethoxypiperidin-1-yl)-3-methyl-6,7-dihydro-5H-pyrrolo[3,4-b]pyridin-5-one] |
| 11200 | COCCOC1CCN(c2nc3c(cc2C)C(=O)NC3)CC1 [Example 56, 2-(4-(2-methoxyethoxy)piperidin-1-yl)-3-methyl-6,7-dihydro-5H-pyrrolo[3,4-b]pyridin-5-one] |
| 61 | COCc1cccc(OC2CCN(c3nc4c(cc3C)C(=O)NC4)CC2)c1 [Example 57, 2-(4-(3-(methoxymethyl)phenoxy)piperidin-1-yl)-3-methyl-6,7-dihydro-5H-pyrrolo[3,4-b]pyridin-5-one] |
| 192 | COCCOCc1cccc(OC2CCN(c3nc4c(cc3C)C(=O)NC4)CC2)c1 [Example 58, 2-(4-(3-((2-methoxyethoxy)meth-yl)phenoxy)piperi-din-1-yl)-3-methyl-6,7-dihydro-5H-pyrrolo[3,4-b]pyridin-5-one] |
| 123 | Cc1cc2c(nc1N1CCC(Oc3cnc4c(c3)CCC4)CC1)CNC2=O [Example 59, 2-(4-((6,7-dihydro-5H-cyclopenta[b]pyridin-3-yl)oxy)piperidin-1-yl)-3-methyl-6,7-dihydro-5H-pyrrolo[3,4-b]pyridin-5-one] |
| 207 | COCCOc1ccc(O[C@@H]2CCN(c3nc4c(cc3C)C(=O)NC4)C[C@H]2F)cn1 [Example 60, 2-((3R,4R)-3-fluoro-4-((6-(2-methoxyethoxy)pyridin-3-yl)oxy)piperidin-1-yl)-3-methyl-6,7-dihydro-5H-pyrrolo[3,4-b]pyridin-5-one] |
| 55 | Cc1cc2c(nc1N1CCC(Oc3ccc(OC(C)C)nc3)CC1)CNC2=O [Example 62, 2-(4-((6-isopropoxypyridin-3-yl)oxy)piperidin-1-yl)-3-methyl-6,7-dihydro-5H-pyrrolo[3,4-b]pyridin-5-one] |
| 145 | Cc1cc2c(nc1N1CCC(OCc3ccccc3)CC1)CNC2=O [Example 63, 2-(4-(benzyloxy)piperidin-1-yl)-3-methyl-6,7-dihydro-5H-pyrrolo[3,4-b]pyridin-5-one] |
| 206 | Cc1cc2c(nc1N1CCC(OCC3(C)CC3(F)F)CC1)CNC2=O (stereo not drawn) [Example 64, 2-(4-((2,2-difluoro-1-methylcyclopropyl)methoxy)piperidin-1-yl)-3-methyl-6,7-dihydro-5H-pyrrolo[3,4-b]pyridin-5-one] |
| 192 | Cc1cc2c(nc1N1CCC(OCC3(F)CC3)CC1)CNC2=O [Example 64A, 2-(4-((1-fluorocyclopropyl)methoxy)piperidin-1-yl)-3-methyl-6,7-dihydro-5H-pyrrolo[3,4-b]pyridin-5-one] |
| 75 | Cc1cc2c(nc1N1CC[C@@H](Oc3cnc4c(c3)COC4)[C@@H](F)C1)CNC2=O [Example 65, 2-((3S,4R)-4-((5,7-dihydrofuro[3,4-b]pyridin-3-yl)oxy)-3-fluoropiperidin-1-yl)-3-methyl-6,7-dihydro-5H-pyrrolo[3,4-b]pyridin-5-one] |
| 164 | Cc1cc2c(nc1N1CCC(OCCC3(C)CC3)CC1)CNC2=O [Example 65A, 3-methyl-2-(4-(2-(1-methylcyclopropyl)ethoxy)piperidin-1-yl)-6,7-dihydro-5H-pyrrolo[3,4-b]pyridin-5-one] |
| 84 | Cc1cncc(OC2CCN(c3nc4c(cc3C)C(=O)NC4)CC2)c1 [Example 66, 3-Methyl-2-(4-((5-methylpyridin-3-yl)oxy)piperidin-1-yl)-6,7-dihydro-5H-pyrrolo[3,4-b]pyridin-5-one] |
| 136 | Cc1cc2c(nc1N1CCC(Oc3ccc4c(c3)C(=O)N(C)C4)CC1)CNC2=O [Example 67, 3-methyl-2-(4-((2-methyl-3-oxoisoindolin-5-yl)oxy)piperidin-1-yl)-6,7-dihydro-5H-pyrrolo[3,4-b]pyridin-5-one] |
| 79 | Cc1cc2c(nc1N1CCC(Oc3cccnc3)CC1)CNC2=O [Example 68, 3-methyl-2-(4-(pyridin-3-yloxy)piperidin-1-yl)-6,7-dihydro-5H-pyrrolo[3,4-b]pyridin-5-one] |
| 88 | Cc1nc2ccc(OC3CCN(c4nc5c(cc4C)C(=O)NC5)CC3)cc2o1 [Example 69, 3-methyl-2-(4-((2-methylbenzo[d]oxazol-6-yl)oxy)piperidin-1-yl)-6,7-dihydro-5H-pyrrolo[3,4-b]pyridin-5-one] |
| 79 | Cc1cc2c(nc1N1CCC(Oc3cnc4[nH]ccc4c3)CC1)CNC2=O [Example 70, 2-(4-((1H-pyrrolo[2,3-b]pyridin-5-yl)oxy)piperidin-1-yl)-3-methyl-6,7-dihydro-5H-pyrrolo[3,4-b]pyridin-5-one] |

From patent US10329289B2, “6,7-dihydro-5H-pyrrolo[3,4-B]pyridin-5-one allosteric modulators of the M4 muscarinic acetylcholine receptor” (Merck Sharp & Dohme Corp., priority 2015, dated 2019)
